Data published in patent publication US20200131558A1, “PAPER-BASED ASSAY FOR ANTIMICROBIAL RESISTANCE” (Colorado State University Research Foundation, priority 2017, published 2020).
Blank lines part the entries; values can stand above or below the molecule they belong to.

Key:
[1] = system: Chromobacterium violaceum; assay: Antibiotic susceptibility testing (MIC, VITEK 2 microdilution); assay type: cell-based; settings: C. violaceum isolate from influent of urban sewage water
Experimental: To determine antibiotic susceptibility of Chromobacterium violaceum and the 32 E. coli isolates, each isolate was subjected to antibiotic susceptibility testing [VITEK 2™ Biomerieux, USA] using microdilution and photometric determination of growth at the Colorado State University Veterinary Diagnostic Laboratory located in Fort Collins, Colo., US. […] The antibiotics that were tested against C. violaceum included amikacin, amoxicillin-clavulanate, ampicillin, cefazolin, cefpodoxime, ceftazidime, cephalothin, imipenem, ticarcillin, and ticarcillin-clavulanate. Antibiotics tested against each E. coli isolate included amoxicillin, ampicillin, cefalexin, cefovecin, cefpodoxime, ceftiofur, piperacillin, ceftazidime, cefotaxime, and imipenem.

[2] = system: Chromobacterium violaceum; assay: Growth on ampicillin-containing agar plate; assay type: cell-based; settings: C. violaceum isolate
β-lactamase = settings: on paper, ~22° C., 1 U/mL β-lactamase, Lineweaver-Burk plot
Experimental: Nitrocefin [VWR International], a chromogenic cephalosporin, was used for detection of β-lactamase because of the distinct color change from yellow to red in the presence of the enzyme, making it a user-friendly platform. […] Aliquots of 9.68 mM nitrocefin was frozen at −20° C. in amber microcentrifuge tubes [VWR International]. These tubes were used to minimize degradation from UV exposure. Aliquots were taken out and allowed to thaw and warm to room temperature. Nitrocefin was further diluted with pH 7.4 phosphate buffered saline (PBS) [1.37 M NaCl, 0.027 M of KCl, 0.1 M Na2HPO4, and 0.018 M KH2PO4] to a concentration of 0.5 mM for each experiment (except for nitrocefin concentration optimization where 0.5 mM was selected). During pH optimization experiments, nitrocefin was diluted in pH buffers ranging from pH 6 to pH 9. Recombinant β-lactamase was purchased at a concentration of 1,500 U/mg [Abcam] and was initially dissolved in dH2O and aliquoted and frozen. […]
In order to quantify the concentration of nitrocefin that was hydrolyzed every minute, a calibration curve was generated by quantifying the red product after the reaction had completed, and plotting green light intensity vs. product concentration. […] The calculated Vmax and Km values were carried out in the Michaelis-Menten equation to obtain a theoretical kinetic curve to compare to data points.

[3] = assay type: physicochemical
[4] = system: C. violaceum's β-lactamase; assay: Paper-based test on intact bacterial isolates; assay type: cell-based, Chromobacterium violaceum; settings: intact bacteria, 0.5 mM nitrocefin, 2 hr
Experimental: Bacterial isolates were obtained from grab samples in the field, except for influent. Field samples include influent, effluent, surface water from a river and sewage samples from city sewers. All samples were plated by pipetting 50-100 μL on various clinical agars [CHROMagar™ Orientation, CHROMagar™ ESBL, and CHROMagar™ KPC]. Bacterial isolates were purified by selecting a single colony with an inoculating loop and spreading the colony on the same kind of agar the colony was selected from, or was spread onto a MacConkey agar plate [Difco]. To remove potential inhibitors before any testing, they were further subcultured onto non selective agar [Tryptic Soy Agar, Thermo Scientific™ Remel™] and then grown in a nutrient broth [Tryptic Soy Broth, Thermo Scientific™ Remel™, Soybean Casein Digest] at 37° C. and 2% CO2. After replenishing the nutrient broth, all bacteria isolates were grown using a shaker for 12-18 hr depending on bacteria growth rate. They were also re-plated on ESBL plates to confirm resistance mechanisms. The isolates were given to the tester blind for accurate, unbiased results. Bacteria were not lysed before reacting 20 μL of bacteria solution with 20 μL of 0.5 mM nitrocefin. Images were obtained after 2 hr of reaction.

resistance/susceptibility of isolate (MIC interpreted per CLSI) [1]: resistant
Compound: Cc1nnc(SCC2=C(C(=O)O)N3C(=O)[C@@H](NC(=O)Cn4cnnn4)[C@H]3SC2)s1 [cefazolin]

resistance/susceptibility of isolate (MIC interpreted per CLSI) [1]: resistant
Compound: CC(=O)OCC1=C(C(=O)O)N2C(=O)[C@@H](NC(=O)Cc3cccs3)[C@H]2SC1 [cephalothin]

resistance/susceptibility of isolate (MIC interpreted per CLSI) [1]: susceptible
Compound: CC1(C)S[C@@H]2[C@H](NC(=O)[C@H](C(=O)O)c3ccsc3)C(=O)N2[C@H]1C(=O)O [ticarcillin]

Continued, molecule first:

Compound: CC1(C)S[C@@H]2[C@H](NC(=O)[C@H](N)c3ccc(O)cc3)C(=O)N2[C@H]1C(=O)O [amoxicillin]
resistance/susceptibility of isolate (MIC interpreted per CLSI) [1]: susceptible

Compound: CC1(C)S[C@@H]2[C@H](NC(=O)[C@H](N)c3ccccc3)C(=O)N2[C@H]1C(=O)O [ampicillin]
growth on ampicillin-containing agar plate [2]: did not grow

Compound: O=C(Cc1cccs1)N[C@@H]1C(=O)N2C(C(=O)O)=C(/C=C/c3ccc([N+](=O)[O-])cc3[N+](=O)[O-])CS[C@H]12 [nitrocefin]
Km (β-lactamase): 293 ± 13 µM
Vmax (β-lactamase): 0.0285 ± 0.0012 mM/min
solubility in water [3]: insoluble in water
reaction with the isolate's β-lactamase (color change) [4]: did not react
